# Literature values, collected in patent US20080286343A1, “Solid form” (priority 2007, published 2008).
# Conditions: g water per 1 g active; slightly soluble
smiles,measurement,value
Cn1c(=O)c2[nH]cnc2n(C)c1=O [Theophylline],Solubility in water (1 g in ... g water),100-1000 g water
